Assay results as given in the supplement of paper PMC10307832.

How the values were obtained:
Assay in all cases: relative viability (nuclei count vs DMSO), 5 days (fraction); higher = more cells survive
[1] = compound: CC1=CC(=CC=C1)NC2=NC(=CS2)C3=CC=NC=C3 + Nc1nc2[nH]cc(CCc3ccc(C(=O)N[C@@H](CCC(=O)O)C(=O)O)cc3)c2c(=O)[nH]1 [Pemetrexed] (partner 0.2 µM)
Method in brief: (§1)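 The day after seeding in 1536-well plates, lung cancer cell lines were treated by pin tool with a single drug, or with a fixed anchor-drug dose together with five library-drug doses (not always all listed) in √10 steps. After 5 days, a combined fix-and-stain solution (final 0.05% Triton X-100, 1% formaldehyde, 1 ug/ml Hoechst) was added. Nuclei counted on 4× images gave relative viability as treated counts over vehicle counts, reported as the median of duplicate plates.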

[2] = compound: Cc1ccc(NC(=O)c2ccc(CN3CCN(C)CC3)cc2)cc1Nc1nc(-c2cccnc2)cs1 [Masitinib] + CS(=O)(=O)CCNCc1ccc(-c2ccc3ncnc(Nc4ccc(OCc5cccc(F)c5)c(Cl)c4)c3c2)o1 [Lapatinib] (partner 2 µM)
Method in brief: as §1

[3] = compound: CC1=CC(=CC=C1)NC2=NC(=CS2)C3=CC=NC=C3 + Cc1nc(Nc2ncc(C(=O)Nc3c(C)cccc3Cl)s2)cc(N2CCN(CCO)CC2)n1 [Dasatinib] (partner 0.075 µM)
Method in brief: as §1

[4] = compound: CC1=CC(=CC=C1)NC2=NC(=CS2)C3=CC=NC=C3 + C[C@]1(O)C[C@@H](c2nc(-c3ccc4ccc(-c5ccccc5)nc4c3)c3c(N)nccn32)C1 [Linsitinib] (partner 1 µM)
Method in brief: as §1

Cell Line | relative viability ([1]; first compound 0.08 µM) | relative viability ([1]; first compound 0.253 µM) | relative viability ([1]; first compound 0.8 µM) | relative viability ([1]; first compound 2.53 µM) | relative viability ([1]; first compound 8 µM) | relative viability ([2]; first compound 0.01 µM) | relative viability ([2]; first compound 0.03162 µM) | relative viability ([2]; first compound 0.1 µM) | relative viability ([2]; first compound 0.3162 µM) | relative viability ([2]; first compound 1 µM) | relative viability ([3]; first compound 0.08 µM) | relative viability ([3]; first compound 0.253 µM) | relative viability ([3]; first compound 0.8 µM) | relative viability ([3]; first compound 2.53 µM) | relative viability ([3]; first compound 8 µM) | relative viability ([4]; first compound 0.08 µM) | relative viability ([4]; first compound 0.253 µM) | relative viability ([4]; first compound 0.8 µM) | relative viability ([4]; first compound 2.53 µM) | relative viability ([4]; first compound 8 µM)
NCI-H2023 | 0.211 | 0.18 | 0.274 | 0.195 | 0.187 | 0.628 | 0.823 | 0.73 | 0.559 | 0.776 | 0.456 | 0.427 | 0.434 | 0.348 | 0.338 | 0.63 | 0.666 | 0.618 | 0.678 | 0.507
HCC-15 | 0.222 | 0.214 | 0.203 | 0.194 | 0.214 | 0.561 | 0.919 | 0.677 | 0.917 | 0.852 | 0.467 | 0.469 | 0.589 | 0.499 | 0.53 | 0.872 | 0.859 | 0.828 | 0.791 | 0.754
COR-L23 | 0.184 | 0.194 | 0.201 | 0.189 | 0.184 | 0.715 | 1.2 | 0.896 | 1.2 | 1.17 | 0.479 | 0.511 | 0.389 | 0.338 | 0.402 | 0.821 | 0.89 | 0.62 | 0.892 | 0.843
HCC-78 | 0.907 | 0.963 | 0.827 | 0.917 | 0.9 | 0.871 | 0.62 | 0.743 | 0.334 | 0.625 |  | 0.376 | 0.398 | 0.379 | 0.523 | 0.398 | 0.506 | 0.542 | 0.423 | 0.63
NCI-H1355 | 0.866 | 0.778 | 0.791 | 0.75 | 0.692 | 0.691 | 0.94 | 0.807 | 0.781 | 0.951 | 0.399 | 0.463 | 0.341 | 0.386 | 0.375 | 0.713 | 0.584 | 0.579 | 0.673 | 0.568
NCI-H838 | 0.26 | 0.228 | 0.263 | 0.257 | 0.241 | 0.808 | 0.846 | 0.774 | 0.794 | 1.02 | 0.233 | 0.248 | 0.244 | 0.293 | 0.267 | 0.882 | 0.937 | 0.855 | 0.868 | 0.651
NCI-H2126 | 0.596 | 0.599 | 0.657 | 0.599 | 0.719 | 0.773 | 0.724 | 0.734 | 0.662 | 0.769 | 0.533 | 0.433 | 0.505 | 0.466 | 0.4 | 0.671 | 0.694 | 0.71 | 0.726 | 0.657
BEN | 0.685 | 0.841 | 0.936 | 0.584 | 0.682 | 0.774 | 0.675 | 0.928 | 0.54 | 0.65 | 0.304 | 0.273 | 0.364 | 0.222 | 0.327 | 0.881 | 0.925 | 0.89 | 0.777 | 0.813
EKVX | 0.361 | 0.333 |  | 0.32 | 0.328 |  | 0.165 | 0.198 | 0.158 | 0.196 | 0.208 | 0.518 | 0.552 | 0.446 | 0.306 | 0.914 | 0.778 | 0.882 | 0.882 | 0.705
NCI-H661 | 0.876 | 0.959 | 0.889 | 0.907 | 0.871 | 0.52 | 0.229 | 0.566 | 0.492 | 0.41 | 0.686 | 0.862 | 0.892 | 0.774 | 0.808 | 0.589 | 0.577 | 0.577 | 0.63 | 0.643
NCI-H1651 | 0.55 | 0.604 | 0.648 | 0.498 | 0.598 | 0.831 | 0.849 | 0.829 | 0.908 | 0.854 | 0.26 | 0.377 | 0.553 | 0.385 | 0.415 | 0.958 | 0.955 | 0.919 | 0.999 | 0.926
NCI-H2087 | 0.637 | 0.623 | 0.591 | 0.63 | 0.711 | 0.757 | 1.06 | 0.77 | 1.22 | 0.861 | 0.67 | 0.804 | 0.742 | 0.778 | 0.796 | 0.934 | 0.862 | 0.996 | 0.888 | 0.798
NCI-H1944 | 0.543 | 0.6 | 0.636 | 0.654 | 0.476 |  | 0.743 | 0.584 | 0.695 | 0.906 | 0.202 | 0.208 | 0.328 | 0.243 | 0.282 | 1.17 | 1.15 | 1.26 | 1.19 | 1.12
